Measured values taken from ChEMBL document CHEMBL5385969, “Design, synthesis, in vitro and in silico evaluation of indole-based tetrazole derivatives as putative anti-breast cancer agents” (RSC Med Chem, 2024).

Experiments:
MDA-MB-231 = test: cells; settings: Homo sapiens, MDA-MB-231, 48 h
Description: Antiproliferative activity against human MDA-MB-231 cells assessed as inhibition of cell growth incubated for 48 hrs by MTT assay

T47D = test: cells; settings: Homo sapiens, 48 h
Description: Antiproliferative activity against human T47D cells assessed as inhibition of cell growth incubated for 48 hrs by MTT assay

MCF7 = test: cells; settings: Homo sapiens, MCF7, 48 h
Description: Antiproliferative activity against human MCF7 cells assessed as inhibition of cell growth incubated for 48 hrs by MTT assay

[1] = Cytotoxicity against human HEK293 cells incubated for 48 hrs by MTT assay; format: toxicity, cell-based

Row | Structure (SMILES) | IC50 (MDA-MB-231) [µM] | IC50 (T47D) [µM] | IC50 (MCF7) [µM] | IC50 at 48 h [1] [µM]
1 | Fc1ccc(Cn2nnc(-c3cn(Cc4ccccc4)c4ccccc34)n2)cc1 | 12.9 | 17.8 | 22.7 | –
2 | Cc1ccc(Cn2nnnc2-c2cn(Cc3ccc(C)cc3)c3ccccc23)cc1 | 9.72 | 23.7 | 20.6 | –
3 | Cc1c(-c2ccc(O)cc2)n(Cc2ccc(OCCN3CCCCCC3)cc2)c2ccc(O)cc12 [BAZEDOXIFENE] | 6.73 | 14.2 | 7.31 | 38.5
4 | Cc1ccc(Cn2cc(-c3nnn(Cc4ccc(Cl)cc4)n3)c3ccccc32)cc1 | 11.6 | 18.8 | 16.4 | –
5 | Cc1ccc(Cn2cc(-c3nnnn3Cc3ccc(Cl)cc3Cl)c3ccccc32)cc1 | 11.2 | 8.15 | 8.32 | –
6 | Cc1ccc(Cn2cc(-c3nnn(Cc4ccc(Cl)c(Cl)c4)n3)c3ccccc32)cc1 | 14.9 | 23.9 | 8.73 | –
7 | COc1cccc(Cn2nnc(-c3cn(Cc4ccccc4)c4ccccc34)n2)c1 | 15.9 | 16.5 | 3.08 | –
8 | Cc1ccc(Cn2nnc(-c3cn(Cc4ccc(C)cc4)c4ccccc34)n2)cc1 | 15.8 | > 25 | > 25 | –
9 | Clc1ccc(Cn2nnc(-c3cn(Cc4ccccc4)c4ccccc34)n2)cc1 | 15.7 | 3.83 | 7.83 | 109
10 | Clc1ccc(Cn2nnc(-c3cn(Cc4ccccc4)c4ccccc34)n2)cc1Cl | 19.4 | 10 | 7.95 | > 125
11 | Cc1ccc(Cn2cc(-c3nnnn3Cc3ccc(Cl)c(Cl)c3)c3ccccc32)cc1 | 12.4 | 9.01 | 10.2 | –
12 | Cc1ccc(Cn2cc(-c3nnn(Cc4cccc(Cl)c4)n3)c3ccccc32)cc1 | 12.8 | 14.2 | 13.2 | –
13 | Cc1ccc(Cn2cc(-c3nnn(Cc4ccccc4)n3)c3ccccc32)cc1 | 8.2 | 15.8 | 11.9 | –
14 | Cc1ccc(Cn2cc(-c3nnnn3Cc3ccccc3)c3ccccc32)cc1 | 9.62 | 14.5 | 9.93 | –
15 | Cc1ccc(Cn2cc(-c3nnnn3Cc3cccc(Cl)c3)c3ccccc32)cc1 | 8.52 | 20 | 14.8 | –
16 | Clc1ccc(Cn2nnc(-c3cn(Cc4ccccc4)c4ccccc34)n2)c(Cl)c1 | 7.69 | 10.9 | 12.7 | –
17 | Cc1ccc(Cn2cc(-c3nnn(Cc4ccc(F)cc4)n3)c3ccccc32)cc1 | 13.1 | 15.8 | 13.3 | –
18 | COc1cccc(Cn2nnc(-c3cn(Cc4ccc(C)cc4)c4ccccc34)n2)c1 | 12.1 | > 25 | 15.1 | –
19 | Clc1cccc(Cn2nnc(-c3cn(Cc4ccccc4)c4ccccc34)n2)c1 | 18.8 | 11.7 | 14.2 | –
20 | Cc1ccc(Cn2cc(-c3nnn[nH]3)c3ccccc32)cc1 | 13.8 | 14.1 | 9.99 | –
21 | c1ccc(Cn2cc(-c3nnn[nH]3)c3ccccc32)cc1 | 16.6 | 24.4 | > 25 | –
22 | Cc1ccc(Cn2cc(-c3nnn(Cc4ccc(Cl)cc4Cl)n3)c3ccccc32)cc1 | 16.7 | 10.6 | 16.6 | –
23 | Cc1ccc(Cn2nnc(-c3cn(Cc4ccccc4)c4ccccc34)n2)cc1 | 13.4 | 10.1 | 11.3 | –
24 | c1ccc(Cn2nnc(-c3cn(Cc4ccccc4)c4ccccc34)n2)cc1 | 14.7 | 13.5 | 9.24 | –
